Test results as given in patent US6737383B1, “Herbicidal oxadiazolidines” (priority 1999, dated 2004).

Tests used:
[1] = test system: bamyardgrass; assay: Test B flood test barnyardgrass; format: in vivo, Echinochloa crus-galli
Summary of the method: (§1)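 Plants were grown to the 2-leaf stage before treatment with test chemical, then held in a greenhouse for twelve to sixteen days. Injury was visually rated against untreated controls on a 0–10 scale, where 0 is no effect and 10 is complete control.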

[2] = test system: pigweed; assay: Test B pre/postemergence pigweed; format: in vivo, Amaranthus retroflexus
Summary of the method: (§2)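 Test chemicals in a non-phytotoxic solvent mixture with surfactant were sprayed preemergence onto planted seeds and postemergence onto plants 2 to 18 cm tall (1- to 4-leaf stage). After twelve to sixteen days in a greenhouse, injury was visually rated against untreated controls from 0 (no effect) to 10 (complete control).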

[3] = test system: crabgrass; assay: Test B pre/postemergence crabgrass; format: in vivo, Digitaria sanguinalis
Summary of the method: as §2

[4] = test system: cocklebur; assay: Test B pre/postemergence cocklebur; format: in vivo, Xanthium strumarium
Summary of the method: as §2

[5] = test system: sugar beet; assay: Test B pre/postemergence sugar beet; format: in vivo, Beta vulgaris
Summary of the method: as §2

[6] = test system: rape; assay: Test B pre/postemergence rape; format: in vivo, Brassica napus
Summary of the method: as §2

[7] = test system: morningglory; assay: Test B pre/postemergence morningglory; format: in vivo, Ipomoea hederacea
Summary of the method: as §2

[8] = test system: blackgrass; assay: Test B pre/postemergence blackgrass; format: in vivo, Alopecurus myosuroides
Summary of the method: as §2

[9] = test system: bedstraw; assay: Test B pre/postemergence bedstraw; format: in vivo, Galium aparine
Summary of the method: as §2

[10] = test system: giant foxtail; assay: Test B pre/postemergence giant foxtail; format: in vivo, Setaria faberii
Summary of the method: as §2

[11] = test system: rice; assay: Test B flood test rice; format: in vivo, Oryza sativa
Summary of the method: as §1

[12] = test system: wheat; assay: Test B pre/postemergence wheat; format: in vivo, Triticum aestivum
Summary of the method: as §2

[13] = test system: surinam grass; assay: Test B pre/postemergence surinam grass; format: in vivo, Brachiaria decumbens
Summary of the method: as §2

[14] = test system: wild oat; assay: Test B pre/postemergence wild oat; format: in vivo, Avena fatua
Summary of the method: as §2

[15] = test system: corn; assay: Test B pre/postemergence corn; format: in vivo, Zea mays
Summary of the method: as §2

[16] = test system: purple nutsedge; assay: Test B pre/postemergence purple nutsedge; format: in vivo, Cyperus rotundus
Summary of the method: as §2

[17] = Rate 62 g/ha, flood test species, Pre-emergence, visual evaluation after twelve to sixteen days
[18] = Rate 125 g/ha, under heading Pre-emergence, flood test species, visual evaluation after twelve to sixteen days
[19] = Rate 250 g/ha, Pre-emergence, flood-test species, scale 0 to 10, 0 is no effect, 10 is complete control
[20] = Rate 500 g/ha, Pre-emergence, flood test species, scale 0 to 10 (0 no effect, 10 complete control)
[21] = Postemergence, Rate 250 g/ha, scale 0 to 10, 0 is no effect, 10 is complete control
[22] = Postemergence, Rate 500 g/ha, scale of 0 to 10 where 0 is no effect and 10 is complete control
[23] = Preemergence, Rate 62 g/ha, scale 0 to 10 (0 no effect, 10 complete control)
[24] = Preemergence, Rate 125 g/ha, scale of 0 to 10 where 0 is no effect and 10 is complete control
[25] = Preemergence, Rate 250 g/ha, scale 0 to 10, 0 is no effect, 10 is complete control
[26] = Preemergence, Rate 500 g/ha, scale 0 to 10, 0 is no effect, 10 is complete control
[27] = Rate 62 g/ha, Postemergence, scale of 0 to 10 where 0 is no effect and 10 is complete control
[28] = Postemergence, Rate 125 g/ha, scale 0 to 10, 0 is no effect, 10 is complete control
[29] = Preemergence, Rate 250 g/ha, scale of 0 to 10 where 0 is no effect and 10 is complete control

CC1CC1Cn1c(=O)on(C(=O)N(c2ccc(F)cc2)C(C)C)c1=O (centres unmarked) [Compound 402]
9: Barnyardgrass plant response rating [1, 20] | Crabgrass plant response rating [3, 22] | Plant response rating, Crabgrass [3, 23] | Plant response rating, Crabgrass [3, 24] | Rape plant response rating [6, 22] | Blackgrass plant response rating [8, 22] | Blackgrass plant response rating [8, 29] | Plant response rating, Giant foxtail [10, 21] | Giant foxtail plant response rating [10, 22] | B. signalgrass plant response rating ([13]; Preemergence, Rate 500 g/ha, scale of 0 to 10 where 0 is no effect and 10 is complete control) | Corn plant response rating [15, 26]
10: Redroot pigweed plant response rating [2, 26] | Crabgrass plant response rating [3, 25] | Crabgrass plant response rating [3, 26] | Morningglory plant response rating [7, 22] | Blackgrass plant response rating [8, 26] | Bedstraw plant response rating [9, 26] | Plant response rating, Giant foxtail [10, 23] | Plant response rating, Giant foxtail [10, 24] | Giant foxtail plant response rating [10, 25] | Giant foxtail plant response rating [10, 26] | Wild oats plant response rating [14, 26]
6: Wheat plant response rating [12, 26]
2: Plant response rating, Redroot pigweed [2, 24] | Redroot pigweed plant response rating [2, 27] | Plant response rating, Sugarbeets [5, 21] | Sugarbeets plant response rating [5, 22] | Morningglory plant response rating [7, 25] | Morningglory plant response rating [7, 26] | Plant response rating, Bedstraw [9, 23] | Rice plant response rating [11, 19] | Rice plant response rating [11, 20] | Plant response rating, B. signalgrass [13, 28] | Plant response rating, B. signalgrass [13, 21]
4: Redroot pigweed plant response rating [2, 25] | Plant response rating, Cocklebur [4, 21] | B. signalgrass plant response rating [13, 29] | Plant response rating, Wild oats [14, 24]
1: Plant response rating, Cocklebur [4, 28] | Sugarbeets plant response rating [5, 27] | Plant response rating, Rape [6, 24] | Rape plant response rating [6, 27] | Plant response rating, Rice (0 to 10 scale, 0 is no effect, 10 is complete control) [11, 17] | Rice plant response rating (0 to 10 scale, 0 is no effect, 10 is complete control) [11, 18] | Plant response rating, Wild oats [14, 23]
8: Barnyardgrass plant response rating [1, 19] | Sugarbeets plant response rating [5, 26] | Plant response rating, Rape [6, 21] | Rape plant response rating [6, 26] | Plant response rating, Morningglory [7, 21] | Bedstraw plant response rating [9, 22] | Plant response rating, Giant foxtail [10, 28] | Giant foxtail plant response rating [10, 27] | Wild oats plant response rating [14, 25]
0: Plant response rating, Redroot pigweed [2, 23] | Plant response rating, Cocklebur [4, 23] | Plant response rating, Cocklebur [4, 24] | Cocklebur plant response rating [4, 25] | Cocklebur plant response rating [4, 26] | Cocklebur plant response rating [4, 27] | Plant response rating, Sugarbeets [5, 23] | Plant response rating, Sugarbeets [5, 24] | Plant response rating, Rape [6, 23] | Plant response rating, Morningglory [7, 23] | Plant response rating, Morningglory [7, 24] | Wheat plant response rating [12, 22] | Plant response rating, Wheat [12, 23] | Plant response rating, Wheat [12, 24] | Wheat plant response rating [12, 27] | Plant response rating, B. signalgrass [13, 23] | B. signalgrass plant response rating [13, 27] | Wild oats plant response rating [14, 27] | Plant response rating, Corn [15, 28] | Plant response rating, Corn [15, 21] | Corn plant response rating [15, 22] | Plant response rating, Corn [15, 23] | Plant response rating, Corn [15, 24] | Corn plant response rating [15, 27] | Plant response rating, Nutsedge [16, 21] | Nutsedge plant response rating [16, 22] | Plant response rating, Nutsedge [16, 23] | Plant response rating, Nutsedge [16, 24] | Nutsedge plant response rating [16, 25] | Nutsedge plant response rating [16, 26] | Nutsedge plant response rating [16, 27]
7: Redroot pigweed plant response rating [2, 22] | Plant response rating, Blackgrass [8, 24] | Plant response rating, Bedstraw [9, 21]
5: Plant response rating, Barnyardgrass (0 to 10 scale, 0 is no effect, 10 is complete control) [1, 17] | Barnyardgrass plant response rating (0 to 10 scale, 0 is no effect, 10 is complete control) [1, 18] | Plant response rating, Redroot pigweed [2, 21] | Plant response rating, Crabgrass [3, 21] | Cocklebur plant response rating [4, 22] | Rape plant response rating [6, 25] | B. signalgrass plant response rating [13, 22]
3: Plant response rating, Crabgrass [3, 28] | Crabgrass plant response rating [3, 27] | Sugarbeets plant response rating [5, 25] | Morningglory plant response rating [7, 27] | Plant response rating, Blackgrass [8, 23] | Plant response rating, Bedstraw [9, 28] | Plant response rating, Bedstraw [9, 24] | Bedstraw plant response rating [9, 27] | Wheat plant response rating [12, 25] | Plant response rating, B. signalgrass [13, 24] | Wild oats plant response rating [14, 22] | Corn plant response rating [15, 25]
